Results taken from patent US11998539B2, “Substituted aminoquinolones as DGKalpha inhibitors for immune activation” (Bayer Aktiengesellschaft, priority 2019, dated 2024).

How the values were obtained:
DGKα [1] = biological target: T1, DGKα (Homo sapiens (Human), UniProt P23743); conditions: prior art; cited from earlier work
Target sequence in this assay (P23743 whole entry, species assumed): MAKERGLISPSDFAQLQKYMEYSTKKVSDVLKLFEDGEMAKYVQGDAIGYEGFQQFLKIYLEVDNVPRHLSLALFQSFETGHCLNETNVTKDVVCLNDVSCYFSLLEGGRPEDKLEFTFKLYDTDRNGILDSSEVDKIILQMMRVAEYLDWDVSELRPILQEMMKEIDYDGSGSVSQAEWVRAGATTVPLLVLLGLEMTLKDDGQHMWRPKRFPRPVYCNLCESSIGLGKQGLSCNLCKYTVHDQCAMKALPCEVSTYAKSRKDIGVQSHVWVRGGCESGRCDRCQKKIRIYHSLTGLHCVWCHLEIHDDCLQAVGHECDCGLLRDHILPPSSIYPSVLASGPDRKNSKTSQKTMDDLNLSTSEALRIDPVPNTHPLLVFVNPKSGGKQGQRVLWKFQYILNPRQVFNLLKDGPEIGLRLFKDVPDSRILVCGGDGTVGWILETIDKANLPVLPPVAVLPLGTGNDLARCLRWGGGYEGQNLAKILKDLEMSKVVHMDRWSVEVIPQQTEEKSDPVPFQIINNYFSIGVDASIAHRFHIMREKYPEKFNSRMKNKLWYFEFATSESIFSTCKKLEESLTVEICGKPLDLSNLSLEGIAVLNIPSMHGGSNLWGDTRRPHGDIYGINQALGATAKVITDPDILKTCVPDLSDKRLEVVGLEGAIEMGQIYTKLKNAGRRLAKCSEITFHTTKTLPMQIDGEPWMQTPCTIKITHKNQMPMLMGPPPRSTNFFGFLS

[2] = system: intracranially injected GBM tumors; conditions: concurrent administration; Dominguez et al. 2013; cited from earlier work
DGKα [3] = biological target: T1, DGKα; assay: Human DGKα kinase activity inhibition assay (ADP-Glo); format: biochemical; conditions: recombinant full-length human DGKα, 55 μM ATP, 7 μM 1,2-dioleoyl-sn-glycerol, read-out: IC50 values of examples in in vitro human DGKa kinase activity inhibition assays
In short: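 Activity was measured as ADP production, detected by luciferase luminescence after removal of unused ATP. The enzyme was baculovirus-expressed full-length human DGKα with a C-terminal FLAG tag. The substrate was 1,2-dioleoyl-sn-glycerol in detergent micelles, and compounds came from 100× DMSO solutions.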
Target sequence in this assay (P23743 other isoform, or with tags, fused parts or gaps): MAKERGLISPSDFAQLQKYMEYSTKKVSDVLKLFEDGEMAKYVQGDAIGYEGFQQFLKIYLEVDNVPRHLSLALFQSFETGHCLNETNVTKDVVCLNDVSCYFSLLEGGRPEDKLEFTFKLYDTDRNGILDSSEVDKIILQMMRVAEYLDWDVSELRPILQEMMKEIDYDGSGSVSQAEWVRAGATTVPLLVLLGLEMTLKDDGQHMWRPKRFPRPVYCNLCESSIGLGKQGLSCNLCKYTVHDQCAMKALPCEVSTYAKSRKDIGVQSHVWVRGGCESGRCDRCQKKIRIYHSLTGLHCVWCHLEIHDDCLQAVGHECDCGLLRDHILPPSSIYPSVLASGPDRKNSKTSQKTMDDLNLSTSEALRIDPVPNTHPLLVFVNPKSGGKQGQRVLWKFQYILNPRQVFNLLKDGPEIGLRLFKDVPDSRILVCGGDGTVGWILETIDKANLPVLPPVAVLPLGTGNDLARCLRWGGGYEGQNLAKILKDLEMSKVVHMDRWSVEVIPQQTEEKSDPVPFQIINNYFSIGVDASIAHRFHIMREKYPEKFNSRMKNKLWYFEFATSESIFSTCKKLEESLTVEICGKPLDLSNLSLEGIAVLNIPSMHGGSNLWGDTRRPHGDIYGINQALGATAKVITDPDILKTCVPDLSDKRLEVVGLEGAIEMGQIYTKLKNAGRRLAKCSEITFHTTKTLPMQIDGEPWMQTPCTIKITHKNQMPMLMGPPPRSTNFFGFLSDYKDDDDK

| Structure (SMILES) | IC50 (DGKα [3]) | also measured |
| --- | --- | --- |
| Cc1ccc2c(C(=O)CN3CCN(C(=O)c4ccco4)CC3)c(C)[nH]c2c1 [AMB639752] | – | inhibitory activity on DGKα (DGKα [1]): micromolar |
| O=C1/C(=C\C=C\c2ccco2)SC(=S)N1NS(=O)(=O)c1ccccc1 [CU-3] | – | inhibitory activity on DGKα (DGKα [1]): sub-micromolar |
| Cc1nc2sccn2c(=O)c1CCN1CCC(=C(c2ccccc2)c2ccc(F)cc2)CC1 [Example R59022] | – | growth of intracranially injected GBM tumors [2]: decreased growth |
| Cc1ccc2oc(C3(C)CCN(c4c(C#N)c(=O)n(C)c5ccc(C6CC6)cc45)CC3)nc2c1 [Example 210, 6-cyclopropyl-1-methyl-4-[4-methyl-4-(5-methyl-1,3-benzoxazol-2-yl)piperidin-1-yl]-2-oxo-1,2-dihydroquinoline-3-carbonitrile] | 119 nM | – |
| Cn1c(=O)c(C#N)c(N2CCC(c3nc4ccccc4s3)CC2)c2ccc(N3CCCC3=O)cc21 [Example 36, 4-[4-(1,3-benzothiazol-2-yl)piperidin-1-yl]-1-methyl-2-oxo-7-(2-oxopyrrolidin-1-yl)-1,2-dihydroquinoline-3-carbonitrile] | 8.3 nM | – |
| Cc1ccc2oc([C@H]3CCN(c4c(C#N)c(=O)n(C)c5ccccc45)[C@@H](C)C3)nc2c1 [Example 234, 1-methyl-4-[(2S,4S)-2-methyl-4-(5-methyl-1,3-benzoxazol-2-yl)piperidin-1-yl]-2-oxo-1,2-dihydroquinoline-3-carbonitrile] | 1.8 nM | – |
| Cc1ccccc1-c1nnc(C2CCN(c3c(C(N)=O)c(=O)n(C)c4ccc(Br)cc34)CC2)o1 [Example 525, 6-bromo-1-methyl-4-{4-[5-(2-methylphenyl)-1,3,4-oxadiazol-2-yl]piperidin-1-yl}-2-oxo-1,2-dihydroquinoline-3-carboxamide] | 39 nM | – |
| COCc1ccc2c(N3CCC(C)(c4nc5cc(C)ccc5o4)CC3)c(C#N)c(=O)n(C)c2c1 [Example 212, 7-(methoxymethyl)-1-methyl-4-[4-methyl-4-(5-methyl-1,3-benzoxazol-2-yl)piperidin-1-yl]-2-oxo-1,2-dihydroquinoline-3-carbonitrile] | 0.3 nM | – |
| Cn1ccc2c(F)cc(C3CCN(c4c(C#N)c(=O)n(C)c5ccccc45)CC3)cc21 [Example 365, 4-[4-(4-fluoro-1-methyl-1H-indol-6-yl)piperidin-1-yl]-1-methyl-2-oxo-1,2-dihydroquinoline-3-carbonitrile] | 14 nM | – |
| Cc1nc2sccn2c(=O)c1CCN1CCC(=C(c2ccc(F)cc2)c2ccc(F)cc2)CC1 [Ritanserin] | – | inhibitory activity on DGKα (DGKα [1]): comparable activity |
| Cc1ccc(-c2nnc(C3CCN(c4c(C#N)c(=O)n(C)c5ccccc45)CC3)o2)cc1 [Example 352, 1-methyl-4-{4-[5-(4-methylphenyl)-1,3,4-oxadiazol-2-yl]piperidin-1-yl}-2-oxo-1,2-dihydroquinoline-3-carbonitrile] | 113 nM | – |
| Cc1ccccc1-c1nnc(C2CCN(c3c(C(N)=O)c(=O)n(C)c4ccccc34)CC2)o1 [Example 461, 1-methyl-4-{4-[5-(2-methylphenyl)-1,3,4-oxadiazol-2-yl]piperidin-1-yl}-2-oxo-1,2-dihydroquinoline-3-carboxamide] | 77 nM | – |
| Cn1c(=O)c(C#N)c(N2CCC(c3cccc(S(C)(=O)=O)c3)CC2)c2ccccc21 [Example 80, 4-{4-[3-(methanesulfonyl)phenyl]piperidin-1-yl}-1-methyl-2-oxo-1,2-dihydroquinoline-3-carbonitrile] | 333 nM | – |
| Cc1ccc2oc(C3CCN(c4c(C#N)c(=O)n(C)c5cc(OC6CCOC6)c(Br)cc45)CC3)nc2c1 (racemic) [Example 424, (rac)-6-bromo-1-methyl-4-[4-(5-methyl-1,3-benzoxazol-2-yl)piperidin-1-yl]-2-oxo-7-[(oxolan-3-yl)oxy]-1,2-dihydroquinoline-3-carbonitrile] | 0.3 nM | – |
| COCc1ccc2nc(C3(C)CCN(c4c(C#N)c(=O)n(C)c5ccccc45)CC3)oc2c1 [Example 392, 4-{4-[6-(methoxymethyl)-1,3-benzoxazol-2-yl]-4-methylpiperidin-1-yl}-1-methyl-2-oxo-1,2-dihydroquinoline-3-carbonitrile] | 6.7 nM | – |
| Cn1c(=O)c(C#N)c(N2CCC(c3nc4cc(OCC5CCCO5)ccc4o3)CC2)c2ccccc21 (stereo not shown) [Example 387, 1-methyl-2-oxo-4-(4-{5-[(oxolan-2-yl)methoxy]-1,3-benzoxazol-2-yl}piperidin-1-yl)-1,2-dihydroquinoline-3-carbonitrile] | 8.9 nM | – |
| Cc1ccc2nc(C3CCN(c4c(C(N)=O)c(=O)n(C)c5ccc(C)cc45)CC3)oc2c1 [Example 196, 1,6-dimethyl-4-[4-(6-methyl-1,3-benzoxazol-2-yl)piperidin-1-yl]-2-oxo-1,2-dihydroquinoline-3-carboxamide] | 3.1 nM | – |
| Cc1ccc2oc(C3CCN(c4c(C#N)c(=O)n(C)c5cc(P(C)(C)=O)ccc45)CC3)nc2c1 [Example 282, 7-(dimethylphosphoryl)-1-methyl-4-[4-(5-methyl-1,3-benzoxazol-2-yl)piperidin-1-yl]-2-oxo-1,2-dihydroquinoline-3-carbonitrile] | 872 nM | – |
| Cc1ccccc1-c1nnc(C2CCN(c3c(C#N)c(=O)n(C)c4ccc(Br)cc34)CC2)o1 [Example 442, 6-bromo-1-methyl-4-{4-[5-(2-methylphenyl)-1,3,4-oxadiazol-2-yl]piperidin-1-yl}-2-oxo-1,2-dihydroquinoline-3-carbonitrile] | 15 nM | – |
| COc1ccc(C2CCN(c3c(C#N)c(=O)n(C)c4ccccc34)CC2)cc1OC [Example 324, 4-[4-(3,4-dimethoxyphenyl)piperidin-1-yl]-1-methyl-2-oxo-1,2-dihydroquinoline-3-carbonitrile] | 14 nM | – |
| Cn1c(=O)c(C(N)=O)c(N2CCC(C)(c3nc4ccccc4o3)CC2)c2cc(F)ccc21 [Example 296, 4-[4-(1,3-benzoxazol-2-yl)-4-methylpiperidin-1-yl]-6-fluoro-1-methyl-2-oxo-1,2-dihydroquinoline-3-carboxamide] | 0.5 nM | – |
| Cn1cc(C(=O)C(F)(F)F)c2cc(C3CCN(c4c(C#N)c(=O)n(C)c5ccccc45)CC3)ccc21 [Example 72, 1-methyl-4-{4-[1-methyl-3-(trifluoroacetyl)-1H-indol-5-yl]piperidin-1-yl}-2-oxo-1,2-dihydroquinoline-3-carbonitrile] | 30 nM | – |
